This is an account of results in patent US6407106B1, “N-triazolylmethyl-piperazine compounds with neurokinin-receptor antagonist activity” (Solvay Pharmaceuticals GmbH, priority 2000, dated 2002).

The nature of one data set: Solubility in water. Format: physicochemical.
A further data set has as its system basal blood pressure. Put plainly: Vasodepressive effects based on calcium-antagonistic properties (action on basal blood pressure). Type of data set: in vivo. Particulars: guinea pig, i.v. doses of up to 0.1 μmol/kg and p.o. doses of up to 3.2 μmol/kg. The procedure: The arterial catheter served to measure the blood pressure. The administration of Substance P and, in the case of i.v. administration, also the administration of the test substance, was effected by means of the venous access. After a 20-minute equilibration phase, 50 pmol/animal of Substance P were administered (bolus, i.v.) as a test stimulus. One minute after administration of the test stimulus, in each case the maximum drop in blood pressure induced thereby was determined as a control for the later stimulation of the NK-1 receptors by the test substance. Then the test substance was administered. For the i.v. investigation, the test substance was administered in metered doses of 0.01 to 0.1 μmol/kg. For the p.o. investigation, the test substance was administered in metered doses of 0.1 to 3.2 μmol/kg. Tylose or Tylose/ethanol was used as the vehicle for the p.o. investigations. Then, in each case the extent of the vasodepression inhibited by the test substance was measured, starting 1 minute after administration of test substance, up to 90 minutes after administration of test substance, at intervals of 15 minutes each time. The doses at which, dependent on the time, just 50% inhibition of the Substance P-induced vasodepression occurs due to the test substance were determined from these measured values as ED50 values. […]

The next data set addresses T1, NK-1 receptors (Cavia porcellus, UniProt P30547).
T1 construct: isolated ring preparations, kept in an oxygenated nutrient solution, of the aortas of Pirbright-White guinea pigs; from tissue; host or cells: isolated aorta rings of Pirbright-White guinea pigs
Kind of data set: Functional NK-1 antagonism on isolated guinea pig aorta rings (inhibition of Substance P-induced relaxation). Type of data set: cell-based. Particulars: half maximum inhibition of relaxation of tone caused by 0.01 μmol Substance P; phenylephrine-tonicised guinea pig aorta. The procedure:
The action antagonistic to NK-1 receptors of the test substances was measured in vitro on isolated ring preparations, kept in an oxygenated nutrient solution, of the aortas of Pirbright-White guinea pigs. The inhibition by the test substances of the relaxation of tone of the aorta preparations, caused after stimulation with the NK-1 agonist Substance P, was determined.
In order to measure the contraction of the vessel muscles, the preparations were fixed to a hook, joined by a thread to a force measuring apparatus and the contractions were recorded in each case on a plotter. The aorta preparations were tonicised with phenylephrine. Then before and after the administration of the test substance the NK-1 receptors of the preparations were stimulated with 0.01 μmol Substance P, which caused relaxation of the tone. The relaxations before and after the administration of the test substance were quantified in percent. The effective concentration of the half maximum inhibition of the relaxation of the tone (=EC50) was calculated. The negative common logarithm of the EC50 value (=pEC50) was given as characteristic variable. The pEC50 value is a measurement of the functional effectiveness of the test substances on NK-1 receptors.

The next data set concerns gerbil foot tapping. Kind of data set: Gerbil foot tapping test for CNS-permeable NK-1 antagonists. Type of data set: in vivo. Particulars: doses of up to 30 mg/kg p.o.
The target of the next data set is T2, human NK-1 receptors (Homo sapiens, UniProt P25103).
T2 construct: expressed in transfected cells; host or cells: CHO cells (membrane preparation)
T2 sequence (P25103 whole entry): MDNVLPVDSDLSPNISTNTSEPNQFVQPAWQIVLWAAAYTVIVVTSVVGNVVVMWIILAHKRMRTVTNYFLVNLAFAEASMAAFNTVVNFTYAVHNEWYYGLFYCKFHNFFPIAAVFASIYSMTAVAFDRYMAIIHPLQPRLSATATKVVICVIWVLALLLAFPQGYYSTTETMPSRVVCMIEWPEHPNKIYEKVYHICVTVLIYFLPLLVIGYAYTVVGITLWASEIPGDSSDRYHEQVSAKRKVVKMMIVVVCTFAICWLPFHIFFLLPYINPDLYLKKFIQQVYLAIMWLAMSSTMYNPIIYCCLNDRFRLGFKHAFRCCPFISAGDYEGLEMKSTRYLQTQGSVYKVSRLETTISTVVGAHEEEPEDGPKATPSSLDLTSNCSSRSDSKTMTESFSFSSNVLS
Kind of data set: Binding power of the test substances to NK-1 receptors in vitro ([3H]-Substance P displacement, CHO cell membranes). The following applies: negative common logarithm of Ki calculated from IC50. The procedure:
The affinity of the test substances to human NK-1 receptors was measured in vitro. The inhibition of the binding of the physiological neurokinin (Substance P) to neurokinin-1 receptors was determined.
The receptor binding studies were performed with [^3H]-Substance P as ligand. For the binding test, different samples of a membrane preparation of CHO cells (=egg cells of the Chinese hamster, […]), which express the human NK-1 receptor (“Accession Number” of the associated nucleic acid sequence=M74290; “Accession Number” of the associated protein sequence=P25103; cf. Takeda, Y.; Chou, K. B., Takeda, J.; Sachais, B. S. and Krause, J. E; Biochemical and Biophysical Research Communications, 179(3) (1991) 1232-1240), were incubated with a solution of the marked ligand, with the incubation mixtures containing no test substance or additions of different concentrations of test substance. Then, separation of bound and free ligands was performed in each of the samples with the aid of glass-fibre filtration. The fraction remaining in the filter was washed several times with buffer solution and then the radioactivity of the fraction remaining in the filter was measured using a beta scintillation counter.
For the compounds of Examples 1 and 8 to 65, the affinity to human NK-1 receptors was determined in each case by a single measurement of the test substances in a concentration of 10^−7 mol/l.
For the compounds of Examples 2 and 4-6, that concentration which effects half maximum displacement of the bound ligand was determined as IC50 of the respective test substance. From this, the corresponding inhibition constant (Ki value) of the test substance was calculated, and was stated as the negative common logarithm of the Ki value (=pKi value). The pKi value is a measurement of the affinity of the test substances to human NK-1 receptors.

T1 sequence (P30547 whole entry): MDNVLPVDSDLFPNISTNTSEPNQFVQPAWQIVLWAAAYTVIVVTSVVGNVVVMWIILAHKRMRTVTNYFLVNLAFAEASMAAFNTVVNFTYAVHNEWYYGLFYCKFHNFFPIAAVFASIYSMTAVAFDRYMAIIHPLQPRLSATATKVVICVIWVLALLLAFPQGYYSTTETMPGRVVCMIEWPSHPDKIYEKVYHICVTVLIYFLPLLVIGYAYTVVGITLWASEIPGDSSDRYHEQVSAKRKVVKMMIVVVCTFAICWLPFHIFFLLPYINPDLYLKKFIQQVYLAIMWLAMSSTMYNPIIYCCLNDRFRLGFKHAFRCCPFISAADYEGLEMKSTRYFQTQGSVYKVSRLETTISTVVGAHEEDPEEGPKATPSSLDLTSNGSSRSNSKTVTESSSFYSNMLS

Take `Cl.Cl.O=C(c1cc(C(F)(F)F)cc(C(F)(F)F)c1)N1CCN(Cc2n[nH]nc2CN2CCOCC2)C[C@H]1Cc1c[nH]c2ccccc12` [(2R)-1-[3,5-bis(trifluoromethyl)benzoyl]-2-(1H-indol-3-ylmethyl)-4-{[5-(morpholinomethyl)-2H-1,2,3-triazol-4-yl]methyl}piperazine-dihydrochloride]: the solubility in water entry in the data set “Solubility in water” is listed as “comparatively readily soluble in water”. What is called EC50 is the concentration needed to bring the measured effect to its halfway point. High values mean lower potency in that assay, low ones higher potency in that assay. For `O=C(c1cc(C(F)(F)F)cc(C(F)(F)F)c1)N1CCN(Cc2n[nH]nc2CN2CCOCC2)C[C@H]1Cc1c[nH]c2ccccc12` [Example 1, (2R)-1-[3,5-Bis(trifluoromethyl)benzoyl]-2-(1H-indol-3-ylmethyl)-4-{[5-(morpholinomethyl)-2H-1,2,3-triazol-4-yl]methyl}piperazine], in the data set on basal blood pressure, the “vasodepression (action on basal blood pressure, calcium-antagonistic side-effect)” value is recorded as “no significant vasodepression”. On NK-1 receptors, this compound showed an EC50 of 1 nM. Besides, in the data set on gerbil foot tapping, the “typical effects of CNS-permeable NK-1 antagonists” value is on record as “did not exhibit any typical effects of CNS-permeable NK-1 antagonists”. In general, Ki refers to a measure of affinity in units of concentration, obtained from inhibition or displacement. Take `O=C(c1cc(C(F)(F)F)cc(C(F)(F)F)c1)N1CCN(Cc2n[nH]nc2CN2CCNCC2)C[C@H]1Cc1c[nH]c2ccccc12` [Example 2]: on NK-1 receptors, the response was half-maximal at 0.794 nM (EC50). Also, the Ki on human NK-1 receptors is 3.98 nM. The compound `Cn1cc(C[C@@H]2CN(Cc3n[nH]nc3CN3CCOCC3)CCN2C(=O)c2cc(C(F)(F)F)cc(C(F)(F)F)c2)c2ccccc21` [Example 3] showed a half-maximal effective concentration (EC50) at NK-1 receptors of 3.98 nM. In other words, the single-digit nanomolar range. `CN(C)Cc1n[nH]nc1CN1CCN(C(=O)c2cc(C(F)(F)F)cc(C(F)(F)F)c2)[C@H](Cc2c[nH]c3ccccc23)C1` [Example 4, (2R)-1-[3,5-Bis(trifluoromethyl)benzoyl]-2-(1H-indol-3-ylmethyl)-4-{[5-(dimethylaminomethyl)-2H-1,2,3-triazol-4-yl]methyl}piperazine] had an EC50 on NK-1 receptors of 2.51 nM. In addition, the Ki at human NK-1 receptors is 5.01 nM. For the compound `CCN(CC)Cc1n[nH]nc1CN1CCN(C(=O)c2cc(C(F)(F)F)cc(C(F)(F)F)c2)[C@H](Cc2c[nH]c3ccccc23)C1` [Example 5], on NK-1 receptors, the concentration giving a half-maximal response (EC50) was 2 nM. For the same compound, at human NK-1 receptors, the Ki was 5.01 nM.

As for `CC(C)N(Cc1n[nH]nc1CN1CCN(C(=O)c2cc(C(F)(F)F)cc(C(F)(F)F)c2)[C@H](Cc2c[nH]c3ccccc23)C1)C(C)C` [Example 6], a half-maximal response at NK-1 receptors (EC50) required 1.26 nM. Further, on human NK-1 receptors, the Ki was 3.98 nM.
